Measurements: ChEMBL document CHEMBL5614402, “Discovery of novel pyrazolo[1,5-a]pyrimidine derivatives as potent reversal agents against ABCB1-mediated multidrug resistance” (Eur J Med Chem, 2024)
Active and inactive are the calls of the source. The rule behind the calls is not given here.

Assays:
MCF7 [1] = assay: Antiproliferative activity against human MCF7 cells incubated for 72 hrs by MTT assay; format: functional, cell-based; conditions: MCF7, 72 h
NCI/ADR-RES [2] = assay: Antiproliferative activity against human MCF7ADR cells incubated for 72 hrs by MTT assay; format: functional, cell-based
MCF7 [3] = assay: Antiproliferative activity against human MCF7 cells assessed as survival rate at 5 uM incubated for 72 hrs by MTT assay; format: functional; conditions: read-out: Survival
NCI/ADR-RES [4] = assay: Antiproliferative activity against human MCF7ADR cells assessed as survival rate at 5 uM incubated for 72 hrs by MTT assay; format: functional; conditions: read-out: Survival
NCI/ADR-RES [5] = assay: Reversal of paclitaxel resistance in human MCF7ADR cells assessed as reduction in paclitaxel IC50 at 5 uM pretreated with compound for 4 hrs followed by paclitaxel addition and measured after 72 hrs by MTT assay (reference value: 6.68 +/- 0.35 microM); format: functional, cell-based
NCI/ADR-RES [6] = assay: Reversal of paclitaxel resistance in human MCF7ADR cells assessed as reversal fold by measuring ratio of paclitaxel IC50 to paclitaxel IC50 in presence of test compound at 5 uM incubated for 72 hrs by MTT assay; format: functional
MCF7 [7] = assay: Reversal of paclitaxel resistance in human MCF7 cells assessed as reduction in paclitaxel IC50 at 5 uM pretreated with compound for 4 hrs followed by paclitaxel addition and measured after 72 hrs by MTT assay (reference value: 2.60 +/- 0.36 nM); format: functional, cell-based
MCF7 [8] = assay: Reversal of paclitaxel resistance in human MCF7 cells assessed as reduction in paclitaxel IC50 at 10 uM pretreated with compound for 4 hrs followed by paclitaxel addition and measured after 72 hrs by MTT assay (reference value: 2.60 +/- 0.36 nM); format: functional, cell-based
NCI/ADR-RES [9] = assay: Reversal of paclitaxel resistance in human MCF7ADR cells assessed as reduction in paclitaxel IC50 at 10 uM pretreated with compound for 4 hrs followed by paclitaxel addition and measured after 72 hrs by MTT assay (reference value: 6.68 +/- 0.35 microM); format: functional, cell-based
MCF7 [10] = assay: Reversal of paclitaxel resistance in human MCF7 cells assessed as reversal fold by measuring ratio of paclitaxel IC50 to paclitaxel IC50 in presence of test compound at 5 uM incubated for 72 hrs by MTT assay; format: functional
MCF7 [11] = assay: Reversal of paclitaxel resistance in human MCF7 cells assessed as reversal fold by measuring ratio of paclitaxel IC50 to paclitaxel IC50 in presence of test compound at 10 uM incubated for 72 hrs by MTT assay; format: functional
NCI/ADR-RES [12] = assay: Reversal of paclitaxel resistance in human MCF7ADR cells assessed as reversal fold by measuring ratio of paclitaxel IC50 to paclitaxel IC50 in presence of test compound at 10 uM incubated for 72 hrs by MTT assay; format: functional
NCI/ADR-RES [13] = assay: Reversal of paclitaxel resistance in human MCF7ADR cells at 10 uM; format: functional, cell-based
MCF7 [14] = assay: Reversal of paclitaxel resistance in human MCF7 cells; format: functional, cell-based
NCI/ADR-RES [15] = assay: Synergistic antiproliferative activity against human MCF7ADR cells assessed as combination index at 10 uM in presence of PTX; format: functional
[16] = Cytotoxicity against HEK293T cells assessed as cell viability at 10 uM; format: toxicity, cell-based, HEK-293T; conditions: human, read-out: Activity
[17] = Cytotoxicity against human GES1 cells assessed as cell viability at 10 uM; format: toxicity, cell-based; conditions: read-out: Activity
[18] = Cytotoxicity against HUVECs assessed as cell viability at 10 uM; format: toxicity, cell-based; conditions: human, HUVEC cells, read-out: Activity
[19] = target: T1, ATP-dependent translocase ABCB1 (Homo sapiens, UniProt P08183); assay: Binding affinity to ABCB1 (unknown origin) assessed as change in thermal stability at 200 uM by CETSA
T1 sequence (P08183 whole entry): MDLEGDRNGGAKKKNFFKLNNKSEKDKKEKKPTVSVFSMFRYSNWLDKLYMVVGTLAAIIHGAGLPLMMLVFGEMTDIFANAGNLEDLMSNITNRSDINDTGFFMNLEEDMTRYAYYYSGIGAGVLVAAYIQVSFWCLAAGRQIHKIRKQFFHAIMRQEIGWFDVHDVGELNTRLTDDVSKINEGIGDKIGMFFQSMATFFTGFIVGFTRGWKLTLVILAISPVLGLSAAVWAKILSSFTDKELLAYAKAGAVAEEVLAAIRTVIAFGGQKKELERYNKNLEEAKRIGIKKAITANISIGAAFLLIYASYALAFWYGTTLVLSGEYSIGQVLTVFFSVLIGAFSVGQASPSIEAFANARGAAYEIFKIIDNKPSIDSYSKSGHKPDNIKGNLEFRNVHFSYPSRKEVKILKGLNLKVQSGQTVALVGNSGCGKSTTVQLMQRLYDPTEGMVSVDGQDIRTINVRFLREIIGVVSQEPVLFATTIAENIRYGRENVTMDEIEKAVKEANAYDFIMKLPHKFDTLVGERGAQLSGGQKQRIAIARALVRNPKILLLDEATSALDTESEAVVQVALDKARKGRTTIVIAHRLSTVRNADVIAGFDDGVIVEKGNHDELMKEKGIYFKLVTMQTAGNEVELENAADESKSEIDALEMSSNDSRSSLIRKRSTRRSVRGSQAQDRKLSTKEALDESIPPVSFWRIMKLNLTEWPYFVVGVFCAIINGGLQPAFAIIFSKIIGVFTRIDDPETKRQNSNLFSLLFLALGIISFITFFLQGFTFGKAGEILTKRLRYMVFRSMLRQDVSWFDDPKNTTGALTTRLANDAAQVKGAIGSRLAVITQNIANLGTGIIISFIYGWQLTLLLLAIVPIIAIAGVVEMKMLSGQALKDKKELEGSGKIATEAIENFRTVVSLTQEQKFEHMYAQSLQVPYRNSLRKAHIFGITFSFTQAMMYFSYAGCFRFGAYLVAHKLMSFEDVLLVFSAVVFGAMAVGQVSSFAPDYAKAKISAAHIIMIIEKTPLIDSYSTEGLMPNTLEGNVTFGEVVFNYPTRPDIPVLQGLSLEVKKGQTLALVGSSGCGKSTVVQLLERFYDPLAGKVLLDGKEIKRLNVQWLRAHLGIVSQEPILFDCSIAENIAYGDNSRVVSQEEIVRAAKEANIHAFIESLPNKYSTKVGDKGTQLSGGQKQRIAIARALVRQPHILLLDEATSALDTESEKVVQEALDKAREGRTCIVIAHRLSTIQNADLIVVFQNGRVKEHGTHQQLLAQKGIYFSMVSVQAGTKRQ

[20] = target: T1, ATP-dependent translocase ABCB1; assay: Binding affinity to ABCB1 (unknown origin) assessed as reduction in protein hydrolysis at 10 to 100 uM incubated for 1 hr followed by alkaline protease addition and measured after 15 mins by Western blotting analysis; conditions: 1.25 h, dose 10-100 µM, time 75 min
NCI/ADR-RES [21] = assay: Effect on ABCB1 expression in human MCF7ADR cells upto 15 uM by Western blotting analysis; format: functional, cell-based
NCI/ADR-RES [22] = assay: Effect on subcellular localization of ABCB1 in human MCF7ADR cells at 10 uM incubated for 48 hrs by DAPI staining based assay; format: functional, cell-based
Tubulin (Homo sapiens) [23] = target: T2, Tubulin (Homo sapiens) (UniProt P68371+Q9H4B7+P0DPH7+P68366+Q13509+Q71U36+P04350+Q3ZCM7+P07437+P68363+Q9BQE3+Q6PEY2+Q13885+Q9BVA1+Q9BUF5); assay: Inhibition of tubulin depolymerization in human MCF7ADR cells assessed as change in microtubule morphology at 10 uM incubated for 72 hrs; format: cell-based
Tubulin (Homo sapiens) [24] = target: T2, Tubulin (Homo sapiens); assay: Induction of paclitaxel mediated tubulin […] in human MCF7ADR cells assessed as appearance of filamentous microtubules at 10 uM incubated for 72 hrs in presence of paclitaxel; format: cell-based; conditions: filed as activator
Tubulin (Homo sapiens) [25] = target: T2, Tubulin (Homo sapiens); assay: Induction of paclitaxel mediated tubulin […] in human MCF7ADR cells assessed as appearance of cellular multinucleation at 10 uM incubated for 72 hrs in presence of paclitaxel; format: cell-based; conditions: filed as activator
NCI/ADR-RES [26] = assay: Induction of cell cycle arrest in human MCF7ADR cells assessed as accumulation of cells at G2/M phase at 10 uM in presence of paclitaxel by propidium iodide staining based flow cytometry analysis; format: functional
NCI/ADR-RES [27] = assay: Inhibition of colony formation in human MCF7ADR cells at 10 uM incubated for 7 days in presence of paclitaxel by crystal violet staining based assay; format: functional, cell-based; conditions: time 7.0 day
NCI/ADR-RES [28] = assay: Inhibition of cell proliferation in human MCF7ADR cells assessed as reduction in cellular proliferation cells at 10 uM in presence of paclitaxel by EdU staining based assay; format: functional
NCI/ADR-RES [29] = assay: Induction of paclitaxel mediated apoptosis in human MCF7ADR cells assessed as reduction in nuclei size at 10 uM in presence of paclitaxel by DAPI staining based assay; format: functional, cell-based
NCI/ADR-RES [30] = assay: Induction of paclitaxel mediated apoptosis in human MCF7ADR cells assessed as nuclear fragmentation at 10 uM in presence of paclitaxel by DAPI staining based assay; format: functional, cell-based
NCI/ADR-RES [31] = assay: Induction of apoptosis in human MCF7ADR cells assessed as viable cells at 10 uM by Annexin V-FITC and propidium iodide staining based flow cytometry analysis (reference value: 85.75%); format: functional; conditions: read-out: Activity
NCI/ADR-RES [32] = assay: Induction of apoptosis in human MCF7ADR cells assessed as early apoptotic cells at 10 uM by Annexin V-FITC and propidium iodide staining based flow cytometry analysis (reference value: 3.87%); format: functional
NCI/ADR-RES [33] = assay: Induction of apoptosis in human MCF7ADR cells assessed as late apoptotic cells at 10 uM by Annexin V-FITC and propidium iodide staining based flow cytometry analysis (reference value: 7.24%); format: functional
NCI/ADR-RES [34] = assay: Induction of apoptosis in human MCF7ADR cells assessed as necrotic cells at 10 uM by Annexin V-FITC and propidium iodide staining based flow cytometry analysis (reference value: 3.14%); format: functional
NCI/ADR-RES [35] = assay: Induction of paclitaxel mediated apoptosis in human MCF7ADR cells assessed as viable cells at 10 uM in presence of paclitaxel by Annexin V-FITC and propidium iodide staining based flow cytometry analysis (reference value: 85.75%); format: functional; conditions: read-out: Activity
NCI/ADR-RES [36] = assay: Induction of paclitaxel mediated apoptosis in human MCF7ADR cells assessed as early apoptotic cells at 10 uM in presence of paclitaxel by Annexin V-FITC and propidium iodide staining based flow cytometry analysis (reference value: 3.87%); format: functional
NCI/ADR-RES [37] = assay: Induction of paclitaxel mediated apoptosis in human MCF7ADR cells assessed as late apoptotic cells at 10 uM in presence of paclitaxel by Annexin V-FITC and propidium iodide staining based flow cytometry analysis (reference value: 7.24%); format: functional
NCI/ADR-RES [38] = assay: Induction of paclitaxel mediated apoptosis in human MCF7ADR cells assessed as necrotic cells at 10 uM in presence of paclitaxel by Annexin V-FITC and propidium iodide staining based flow cytometry analysis (reference value: 3.14%); format: functional
NCI/ADR-RES [39] = assay: Induction of DNA damage in human MCF7ADR cells at 10 uM by comet assay; format: functional, cell-based
NCI/ADR-RES [40] = assay: Induction of DNA damage in human MCF7ADR cells at 10 nM by comet assay; format: functional, cell-based
NCI/ADR-RES [41] = assay: Induction of paclitaxel mediated DNA damage in human MCF7ADR cells at 10 uM in presence of paclitaxel by comet assay; format: functional, cell-based

Compound `COc1cc(-c2c(C)nc3cc(-c4cccs4)nn3c2-c2cc(OC)c(OC)c(OC)c2)cc(OC)c1OC` has an IC50 (MCF7 [1]) greater than 20 µM, an IC50 (NCI/ADR-RES [2]) greater than 20 µM and a viability at 5 µM (MCF7 [3]) of 97.7%. It also gave a viability at 5 µM (NCI/ADR-RES [4]) of 95%, an IC50 (NCI/ADR-RES [5]) of 27 nM and a Ratio (NCI/ADR-RES [6]) of 247.4. For the same compound, the IC50 (MCF7 [7]) was 2.96 nM, the IC50 (MCF7 [8]) was 2.65 nM and the IC50 (NCI/ADR-RES [9]) was 10.1 nM. It also gave a Ratio (MCF7 [10]) of 0.88, a Ratio (MCF7 [11]) of 0.98 and a Ratio (NCI/ADR-RES [12]) of 663.44. For the same compound, the Activity (NCI/ADR-RES [13]) was “Active”, the Activity (MCF7 [14]) was “inactive” and the CI (NCI/ADR-RES [15]) was 0.09. It also gave a viability at 10 µM [16] greater than 80%, a viability at 10 µM [17] greater than 80% and a viability at 10 µM [18] greater than 80%. For the same compound, the Activity [19] was “Active”, the Activity [20] was “Active” and the Activity (NCI/ADR-RES [21]) was “inactive”. For the same compound, the Activity (NCI/ADR-RES [22]) was “inactive”, the inhibition (Tubulin (Homo sapiens) [23]) was “inactive” and the Activity (Tubulin (Homo sapiens) [24]) was “Active”. The Activity (Tubulin (Homo sapiens) [25]) was “Active”, the Activity (NCI/ADR-RES [26]) was “Active” and the inhibition (NCI/ADR-RES [27]) was “Active”. The inhibition (NCI/ADR-RES [28]) was “Active”, the Activity (NCI/ADR-RES [29]) was “Active” and the Activity (NCI/ADR-RES [30]) was “Active”. The viability at 10 µM (NCI/ADR-RES [31]) was 84.4%, the Activity (NCI/ADR-RES [32]) was 6.17% and the Activity (NCI/ADR-RES [33]) was 7.98%. The Activity (NCI/ADR-RES [34]) was 1.44%, the viability at 10 µM (NCI/ADR-RES [35]) was 52.3% and the Activity (NCI/ADR-RES [36]) was 13.87%. The Activity (NCI/ADR-RES [37]) was 29.54%, the Activity (NCI/ADR-RES [38]) was 4.28% and the Activity (NCI/ADR-RES [39]) was “Active”. For the same compound, the Activity (NCI/ADR-RES [40]) was “Active” and the Activity (NCI/ADR-RES [41]) was “Active”.
